What is called IC50 is the point on the concentration scale where inhibition reaches its midpoint. For orientation: melting point means the temperature of the solid-liquid transition.

Entries after “also recorded” stand apart in the source; their conditions may differ.

The test system of data set [1] is normal human fetal lung fibroblast (MRC5). The data set is described as follows: MTT cytotoxicity assay, 72 h, normal cells. Format: cell-based. Particulars: MTT 72 h, normal fibroblasts, read-out: IC50 ± SD, MRC5. How it is done: (§1) Three cancer cell lines, human breast adenocarcinoma (MCF7), human ovary adenocarcinoma (A2780), and human colon adenocarcinoma (HT29), in addition the normal human fetal lung fibroblast (MRC5), were used. All cell lines were obtained from the ATCC. The three cancer cells were subcultured in RPMI-1640 media (10% FBS), while MRC5 was maintained in Eagles minimum essential medium (EMEM, 10% FBS), all at 37°C, 5% CO2, and 100% relative humidity.
(§2) As previously reported, the cytotoxicity of the six compounds, including podophyllotoxin as reference, was evaluated by the MTT assay. The three cell lines and one normal fibroblast cells were separately cultured in 96-well (3 × 10^3/well) and incubated at 37°C overnight. Final compound concentrations are as follows: 0, 0.005, 0.050, 0.500, 5.000, and 25.000 μM (DMSO 0.1%; n = 3). Plates were incubated for 72 h, followed by addition of MTT to each well. Plates were incubated for 3 hr, supernatant was aspirated, and DMSO was added to each well. The absorbance was read on multiplate reader. The optical density of the purple formazan A550 is proportional to the number of viable cells. Compound concentration causing 50% inhibition (IC50) compared to control cell growth (100%) was determined. GraphPad Prism version 5.00 for Windows, GraphPad Software, San Diego California, USA, was used for analysis.
(Formazan colour is commonly taken as a measure of viable cells.)

For data set [2], the system named is human colon adenocarcinoma (HT29). In words: MTT cytotoxicity assay, 72 h. It is filed as cell-based. Particulars: HT-29, MTT 72 h, read-out: IC50 ± SD, HT29. How it is done:
as §1, §2

In data set [3] the test system is human breast adenocarcinoma (MCF7). In words: MTT cytotoxicity assay, 72 h. Format: cell-based. Particulars: MTT 72 h, read-out: IC50 ± SD, MCF7. On the procedure:
as §1, §2

The subject of data set [4] is human ovary adenocarcinoma (A2780). In words: MTT cytotoxicity assay, 72 h. It is filed as cell-based. The conditions noted are these: MTT 72 h, read-out: IC50 ± SD, A2780. How it is done: as §1, §2
The subject of data set [5] is MCF7, A2780, and HT29. The data set is described as follows: MTT cytotoxicity assay, text summary over the three cancer cell lines and selectivity versus MRC5. It is filed as cell-based, human. Particulars: for selectivity against MCF7, A2780 and HT29 compared to MRC5 cells: cancer cells versus normal MRC5 cells; for IC50: Homo sapiens, MTT, range over three cancer cell lines, read-out: activity (IC50) against the three cell lines MCF7, A2780 and HT29. On the procedure: as §1, §2

A short description of data set [6]: Stability observation of the prepared compound. Format: physicochemical. The conditions noted are these: excluded from the biological assay.
Data set [7] concerns MCF7 cells. In words: Annexin V FITC/PI apoptosis assay (flow cytometry). It is filed as cell-based, human. The conditions noted are these: 24 h treatment, 0.5-5.0 µM, dose-dependent. How it is done: Annexin V FITC/PI assay was used to evaluate possible ability to induce apoptosis. MCF7 cells were cultured in 6 well plates (1 × 10^5 cells/well) overnight at 37°C. Compounds 2, 3, and 7 were used to treat cells (0, 0.5, 1.0, and 5.0 µM). After 24 h, the supernatant of treated cells was collected in tubes and kept in ice, and cells were trypsinized and incubated at 37°C before being added to the tubes. MCF7 cells were centrifuged (2000 rpm) and washed with PBS (x1), and pellets resuspended in the binding buffer (100 μL) and annexin V FITC (10 μL). Tubes were incubated at room temperature in dark for 20 min, before adding binding buffer (400 μL) and 10 μL propidium iodide (PI). Analysis was performed by flow cytometry (BC, FC500, USA). Different cell populations (early apoptotic, late apoptotic, and necrotic cells) were identified by annexin V and PI staining.

As for `COc1cc(C2c3cc4c(cc3C(OS(=O)(=O)Nc3ccccn3)C3COC(=O)C23)OCO4)cc(OC)c1OC` (centres unmarked) [Compound 5, 4-N-(2-Pyridinyl)podophyllotoxin Sulfamate], the melting point is 230 °C (dec.). Besides, the IC50 in data set [1] is 47 ± 42 nM. For the same molecule, the IC50 in data set [2] is 1048 ± 5 nM. Further, the IC50 in data set [3] was 184 ± 52 nM. In data set [4], the IC50 is 132 ± 12 nM. In data set [5], the “selectivity against MCF7, A2780 and HT29 compared to MRC5 cells” value (“selectivity against MCF7, A2780 and HT29” for short) was “no selectivity”.

In turn, `COc1cc(C2c3cc4c(cc3C(OS(=O)(=O)Nc3ccc(F)cc3)C3COC(=O)C23)OCO4)cc(OC)c1OC` (centres unmarked) [Compound 6, 4-N-(4-Flourophenyl)podophyllotoxin Sulfamate] displayed a melting point of 220 °C. Moreover, the “stability of the compound” value in data set [6] was “unstable”.

On to `COc1cc([C@@H]2c3cc4c(cc3[C@H](O)[C@H]3COC(=O)[C@H]23)OCO4)cc(OC)c1OC` [Podophyllotoxin], for which the IC50 in data set [1] is 43 ± 60 nM; in data set [2], 2 ± 1 nM; in data set [3] it was 4 ± 1 nM; in data set [4] it was 7 ± 1 nM.

Consider `COc1cc(C2c3cc4c(cc3C(OS(N)(=O)=O)C3COC(=O)C23)OCO4)cc(OC)c1OC` (centres unmarked) [Compound 2, 4-O-Podophyllotoxin Sulfamate], for which the IC50 in data set [1] is 7510 ± 1510 nM; in data set [2] it was 1340 ± 637 nM; in data set [3] it was 648 ± 87 nM; in data set [4] it was 729 ± 363 nM; in data set [5], ≤ 1000 nM. Besides, the “selectivity against MCF7, A2780 and HT29” value in data set [5] is “less cytotoxic against MRC5 cells; also recorded: moderate selectivity”. The “increase of early apoptotic MCF7 cell population compared to control” value (shortened to “increase”) in data set [7] is 1.7–2.2 fold.

In the case of `COc1cc(C2c3cc4c(cc3C(OS(=O)(=O)NCCc3ccccn3)C3COC(=O)C23)OCO4)cc(OC)c1OC` (centres unmarked) [Compound 4, 4-N-(2-Pyridinylethyl)podophyllotoxin Sulfamate], the melting point was found to be 225 °C. Also, in data set [1], the IC50 came to 48 ± 3 nM. The IC50 in data set [2] stood at 228 ± 75 nM. In data set [3], the 50% inhibitory concentration (IC50) amounted to 212 ± 10 nM. In data set [4], the IC50 was 456 ± 180 nM. Also, the “selectivity against MCF7, A2780 and HT29” value in data set [5] was “no selectivity”.

In the case of `COc1cc(C2c3cc4c(cc3C(OS(=O)(=O)Nc3ccc5cc6ccccc6cc5c3)C3COC(=O)C23)OCO4)cc(OC)c1OC` (centres unmarked) [Compound 7, 4-N-(2-Anthracenyl)podophyllotoxin Sulfamate], the IC50 in data set [1] is 9080 ± 1010 nM; in data set [2], 5080 ± 673 nM; in data set [3], 2120 ± 989 nM; in data set [4], 3650 ± 1940 nM; in data set [5], 2120 to 5080 nM. Moreover, the “increase” value in data set [7] was 1.7–2.2 fold.

Take `COc1cc(C2c3cc4c(cc3C(OS(=O)(=O)NCc3ccccn3)C3COC(=O)C23)OCO4)cc(OC)c1OC` (centres unmarked) [Compound 3, 4-N-(2-Pyridinylmethyl)podophyllotoxin Sulfamate]: the IC50 in data set [1] was 2030 ± 250 nM; in data set [2] it was 222 ± 98 nM; in data set [3], 150 ± 60 nM; in data set [4], 179 ± 10 nM; in data set [5], 150 to 220 nM. The “selectivity against MCF7, A2780 and HT29” value in data set [5] is 9.1–13.5 fold. In addition, in data set [7], the “increase” value was 1.7–2.2 fold.

(Values after PMC7857870, “Design and Synthesis of 4-O-Podophyllotoxin Sulfamate Derivatives as Potential Cytotoxic Agents” (Evidence-based Complementary and Alternative Medicine : eCAM, 2021).)
